Format in all cases: functional, cell-based
For data set [1], the target named is T1, Organic anion transporter 3 (Rattus norvegicus, UniProt Q9R1U7).
T1 sequence (Q9R1U7 whole entry): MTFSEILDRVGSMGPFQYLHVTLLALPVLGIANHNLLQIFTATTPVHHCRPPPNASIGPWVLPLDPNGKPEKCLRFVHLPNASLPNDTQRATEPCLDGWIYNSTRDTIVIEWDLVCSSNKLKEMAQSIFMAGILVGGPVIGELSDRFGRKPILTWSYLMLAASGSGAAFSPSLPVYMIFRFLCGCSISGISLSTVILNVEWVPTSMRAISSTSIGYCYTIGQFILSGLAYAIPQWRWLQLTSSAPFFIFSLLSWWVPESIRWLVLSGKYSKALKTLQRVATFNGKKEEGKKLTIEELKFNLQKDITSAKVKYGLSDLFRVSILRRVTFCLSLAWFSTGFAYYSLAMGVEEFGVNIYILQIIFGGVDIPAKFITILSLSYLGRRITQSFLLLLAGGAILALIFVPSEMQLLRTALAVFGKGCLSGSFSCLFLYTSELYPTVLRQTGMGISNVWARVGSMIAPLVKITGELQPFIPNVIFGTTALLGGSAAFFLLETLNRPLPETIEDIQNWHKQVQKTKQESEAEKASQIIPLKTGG
Description: TP_TRANSPORTER: inhibition of PCG uptake in Oat3-expressing LLC-PK1 cells.

The target of data set [2] is T2, Solute carrier family 22 member 6 (Rattus norvegicus, UniProt O35956).
T2 sequence (O35956 whole entry): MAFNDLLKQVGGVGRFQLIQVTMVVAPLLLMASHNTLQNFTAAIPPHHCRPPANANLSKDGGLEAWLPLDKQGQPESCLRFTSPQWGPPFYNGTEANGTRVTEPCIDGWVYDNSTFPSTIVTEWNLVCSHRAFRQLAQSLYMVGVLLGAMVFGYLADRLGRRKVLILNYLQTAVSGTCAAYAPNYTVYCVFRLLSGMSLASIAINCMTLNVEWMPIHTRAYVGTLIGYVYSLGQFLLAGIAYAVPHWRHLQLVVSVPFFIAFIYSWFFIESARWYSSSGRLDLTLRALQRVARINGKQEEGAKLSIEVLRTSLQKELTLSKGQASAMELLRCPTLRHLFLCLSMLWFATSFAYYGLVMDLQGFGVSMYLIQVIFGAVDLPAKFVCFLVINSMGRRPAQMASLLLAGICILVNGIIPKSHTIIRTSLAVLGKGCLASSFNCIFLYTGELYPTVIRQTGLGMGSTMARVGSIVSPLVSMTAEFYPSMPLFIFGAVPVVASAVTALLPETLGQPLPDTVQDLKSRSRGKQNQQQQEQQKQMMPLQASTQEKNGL
Description: TP_TRANSPORTER: inhibition of PAH uptake in Oat1-expressing LLC-PK1 cells.

For data set [3], the target named is T1, Organic anion transporter 3. Kind of data set: TP_TRANSPORTER: inhibition of PCG uptake in OAT3-expressing LLC-PK1 cells.
Substrate in data set [4]: CC1(C)S[C@@H]2[C@H](NC(=O)Cc3ccccc3)C(=O)N2[C@H]1C(=O)O
Kind of data set: TP_TRANSPORTER: uptake in Oat3-expressing LLC-PK1 cells.

This passage reports Ki and Km results from ChEMBL document CHEMBL2074102, “Expression and functional characterization of rat organic anion transporter 3 (rOat3) in the choroid plexus” (Mol Pharmacol, 2002).

For orientation: Ki means a measure of affinity in units of concentration, obtained from inhibition or displacement. `Nc1ccc(C(=O)NCC(=O)O)cc1` [AMINOHIPPURIC ACID] yielded a Ki in data set [1] of 398 µM. Take `CN/C(=N/CCSCc1nc[nH]c1C)NC#N` [CIMETIDINE]: the Ki in data set [2] is more than 1000 µM; in data set [3] it was 46.8 µM. For `C[C@]12CC[C@@H]3c4ccc(O)cc4CC[C@H]3[C@@H]1CC[C@@H]2O[C@@H]1O[C@H](C(=O)O)[C@@H](O)[C@H](O)[C@H]1O` [ESTRADIOL 17B GLUCURONIDE], the Ki in data set [1] is 35.6 µM; in data set [2], more than 300 µM. In turn, `C[C@]12CC[C@@H]3c4ccc(OS(=O)(=O)O)cc4CC[C@H]3[C@@H]1CCC2=O` [ESTRONE SULFURIC ACID] displayed a Ki in data set [3] of 9.1 µM. `CCCN(CCC)S(=O)(=O)c1ccc(C(=O)O)cc1` [PROBENECID] had a Ki in data set [1] of 4.43 µM.

B1: Organic anion transporter 3 (Rattus norvegicus) (protein)
chain: MTFSEILDRVGSMGPFQYLHVTLLALPVLGIANHNLLQIFTATTPVHHCRPPPNASIGPWVLPLDPNGKPEKCLRFVHLPNASLPNDTQRATEPCLDGWIYNSTRDTIVIEWDLVCSSNKLKEMAQSIFMAGILVGGPVIGELSDRFGRKPILTWSYLMLAASGSGAAFSPSLPVYMIFRFLCGCSISGISLSTVILNVEWVPTSMRAISSTSIGYCYTIGQFILSGLAYAIPQWRWLQLTSSAPFFIFSLLSWWVPESIRWLVLSGKYSKALKTLQRVATFNGKKEEGKKLTIEELKFNLQKDITSAKVKYGLSDLFRVSILRRVTFCLSLAWFSTGFAYYSLAMGVEEFGVNIYILQIIFGGVDIPAKFITILSLSYLGRRITQSFLLLLAGGAILALIFVPSEMQLLRTALAVFGKGCLSGSFSCLFLYTSELYPTVLRQTGMGISNVWARVGSMIAPLVKITGELQPFIPNVIFGTTALLGGSAAFFLLETLNRPLPETIEDIQNWHKQVQKTKQESEAEKASQIIPLKTGG
As a reminder, the Km is the substrate concentration at which the rate is half of its maximum. For the molecule B1, the Km in data set [4] is 82.6 µM.
